Experimental data from US20030083292A1, “Inhibitors of DNA methyltransferase isoforms” (priority 2001, published 2003).

What was measured:
[1] = system: Glyceraldehyde 3′-phosphate dehydrogenase mRNA; assay: Northern blot, non target mRNA Glyceraldehyde 3′-phosphate dehydrogenase; format: cell-based, human; settings: A549 cells
Method: (§1) Active oligonucleotides identified in initial screens were then synthesized with phosporothiate backbone modification and 2′-O-methyl modifications of the sugar on the four 5′ and 3′ nucleotides. […] Human A549 or T24 cells were treated with increasing doses of antisense (AS) oligonucleotide from 0-75 nM for 24 hours.
(§2) Briefly, human A549 or T24 human bladder carcinoma cells were seeded in 10 cm tissue culture dishes one day prior to oligonucleotide treatment. The cell lines were obtained from the American Type Culture Collection (ATCC) (Manassas, Va.) and were grown under the recommended culture conditions. Before the addition of the oligonucleotides, cells were washed with PBS (phosphate buffered saline). Next, lipofectin transfection reagent (GIBCO BRL Mississauga, Ontario, Calif.), at a concentration of 6.25 μg/ml, was added to serum free OPTIMEM medium (GIBCO BRL, Rockville, Md.), which was then added to the cells. The oligonucleotides to be screened were then added directly to the cells (i.e., one oligonucleotide per plate of cells).
Cells were harvested, and total RNAs were analyzed by Northern blot analysis. Briefly, total RNA was extracted using RNeasy miniprep columns (QIAGEN). Ten to twenty μg of total RNA was run on a formaldehyde-containing 1% agarose gel with 0.5 M sodium phosphate (pH 7.0) as the buffer system. […]

DNMT3a mRNA = assay: Northern blot of DNMT3a mRNA expression after antisense treatment; format: cell-based, human; settings: A549 cells
Method: (§3) To identify antisense oligodeoxynucleotide (ODN) capable of inhibiting DNMT3a or DNMT3b expression in human cancer cells, antisense oligonucleotides were initially screened in T24 (human blader) A549 (human non small cell lung cancers cells at 100 nM. Cells were harvested after 24 hours of treatment, and DNMT3a or DNMT3b RNA expression was analyzed by Northern blot analysis.
as §1
as §2, with “The oligonucleotides to be screened were then added directly to the cells (i.e., one oligonucleotide per plate of cells).” left out
Cells were harvested, and total RNAs were analyzed by Northern blot analysis. […]

DNMT1 mRNA = assay: Northern blot, non target mRNA DNMT1; format: cell-based, human; settings: A549 cells
[2] = system: HMEC (human mammary epithelial cells); assay: Apoptosis in normal cells, HMEC; format: cell-based; settings: 75 nM, 48 hrs
Method: (§4) In order to determine the effects of DNMT3a and DNMT3b inhibition on apoptosis of cancer cells, various cancer cell lines (A549 or T24 cells, MDAmb231) were exposed to the DNMT3a and DNMT3b AS-ODN for various periods of time and the effects on apoptosis were determined. For the analysis of apoptosis (active cell death), cells were analyzed using the Cell Death Detection ELISA ^Plus kit (Roche Diagnostic GmBH, Mannheim, Germany) according to the manufacturer's directions. Typically, 10,000 cells were plated in 96-well tissue culture dishes for 2 hours before harvest and lysis. Each sample was analyzed in duplicate. ELISA reading was done using a MR700 plate reader (DYNEX Technology, Ashford, Middlesex, England) at 410 nm. The reference was set at 490 nm.
(§5) The effect of DNMT3b inhibition on the induction of apoptosis in normal cells was also determined, the results of which are presented in FIG. 10. HMEC (human mammary epithelial cells, ATCC, Manassas, Va.) and MRHF (foreskin fibroblasts, ATCC, Manassas, Va.) were treated with 75 nM of DNMT3b AS (SEQ ID NO: 18) or its mismatch control SEQ ID NO: 19 for 48 hrs as previously described for human cancer cells.

DNMT3b protein = assay: Western blot of DNMT3b protein level; format: cell-based, human; settings: 0-75 nM, 48 hrs
Method: In order to determine whether treatment with DNMT3a or DNMT3b AS-ODNs would inhibit expression at the protein level, antibodies specific for either DNMT3a or DNMT3b were produced for use in western blots. DNMT3b is expressed at sufficiently high levels in human cancer cells to be detected by our DNMT3b antibody. However, DNMT3a is not expressed at detectable levels. Therefore, both human A549 non small cell lung cancer cells and T24 human bladder cancer cells were treated with doses of the DNMT3b antisense inhibitor (SEQ ID NO: 18) ranging from 0-75 nM for 48 hours and then measured DNMT3b protein levels by Western blot.
Briefly, cells were lysed in buffer containing 1% Triton X-100, 0.5% sodium deoxycholate, 5 mM EDTA, 25 mM Tris-HC1, pH 7.5, plus protease inhibitors. Total protein was quantified by the protein assay reagent from Bio-Rad (Hercules, Calif.). 100 ug of total protein was analyzed by SDS-PAGE. Next, total protein was transferred onto a PVDF membrane and probed with DNMT3b specific antibody. Anti-DNMT3b antibody was raised by immunizing rabbits with a GST fusion protein containing a fragment of the DNMT3b protein (amino acids 4-101 of GenBank Accession No. NM_006892). Rabbit antiserum was tested and found only to react specifically to the human DNMT3b isoform. DNMT3b antiserum was used at 1:500 dilution in Western blots to detect DNA MeTase-6 in total cell lysates. Horse Radish Peroxidase conjugated secondary antibody was used at a dilution of 1:5000 to detect primary antibody binding. The secondary antibody binding was visualized by use of the Enhanced chemiluminescence (ECL) detection kit (Amersham-Pharmacia Biotech., Inc., Piscataway, N.J.).

DNMT3b mRNA = assay: Northern blot of DNMT3b mRNA expression after antisense treatment; format: cell-based, human; settings: A549 cells
Method: as §3, §1, §2
Cells were harvested, and total RNAs were analyzed by Northern blot analysis. Briefly, total RNA was extracted using RNeasy miniprep columns (QIAGEN). Ten to twenty μg of total RNA was run on a formaldehyde-containing 1% agarose gel with 0.5 M sodium phosphate (pH 7.0) as the buffer system. RNAs were then transferred to nitrocellulose membranes and hybridized with the radiolabelled DNA probes specific for DNMT3a or DNMT3b messenger RNA. Autoradiography was performed using conventional procedures.

[3] = system: A549 human non small cell lung cancer cells; assay: Apoptosis, Cell Death Detection ELISA Plus, A549 cells; format: cell-based
Method: as §4

[4] = system: MRHF (foreskin fibroblasts); assay: Apoptosis in normal cells, MRHF; format: cell-based, human; settings: 75 nM, 48 hrs
Method: as §4, §5

Substance | expression of non target mRNA Glyceraldehyde 3′-phosphate dehydrogenase [1] | expression of DNMT3a mRNA (DNMT3a mRNA) | expression of non target mRNA DNMT1 (DNMT1 mRNA) | apoptosis [2] | level of DNMT3b protein (DNMT3b protein; A549 human non small cell lung cancer cells) | level of DNMT3b protein (DNMT3b protein; A549 human non small cell lung cancer cells, listed as MG3741) | level of DNMT3b protein (DNMT3b protein; T24 human bladder cancer cells) | level of DNMT3b protein (DNMT3b protein; T24 human bladder cancer cells, listed as MG3741) | expression of DNMT3b mRNA (DNMT3b mRNA) | IC50 (DNMT3b mRNA; 0-75 nM, 24 hours, read-out: estimated IC50 value, inhibition of DNMT3b expression) | apoptosis [3] | apoptosis [4]
SEQ ID NO: 18: DNMT3B AS, 3′UTR (3993), PTI, 5′cgtcgtggctccagttacaa3′ (antisense CGTCGTGGCTCCAGTTACAA; DNA, all phosphorothioate, methylation of C not given here) | not effected | not effected | not effected | no apoptosis | dose dependent effect | inhibits | dose dependent effect | inhibits | dose dependent inhibition | ~25 nM | induced apotosis | no apoptosis
SEQ ID NO: 33: DNMT3A AS, 3′UTR (4045), PTI, 5′cgtgagaacgcgccatctgc3′ (antisense CGTGAGAACGCGCCATCTGC; DNA, all phosphorothioate, methylation of C not given here) | not effected | dose dependent effect | not effected | – | – | – | – | – | not effected | – | – | –
